Assay results published in EPA's aquatic toxicity sets.

System: Tetrahymena pyriformis
Assay: 48 h IGC50 (-log10 mol/L); higher = more toxic

Compared with NCc1ccc(Cl)cc1, OCCc1ccc(O)cc1 is lower in “48 h IGC50 (-log10 mol/L)” value: 3.16 for the first, 2.17 for the second.

Going from C#CC(O)C(C)C (centres undefined) to CC(C)CC(N)=O, the “48 h IGC50 (-log10 mol/L)” value falls from 2.97 to 1.34.

Compared with CCCC#CCCO, CC#CCCO is lower in “48 h IGC50 (-log10 mol/L)” value: 2.68 for the first, 1.82 for the second.

First: CCOC(=O)C(Br)C(C)Br (centres undefined)
Second: CCOC(=O)C[C@@H](C)O
The “48 h IGC50 (-log10 mol/L)” value of the first is higher: 4.44 for the first, 1.47 for the second.

First: Oc1cc(Cl)ccc1Cl
Second: Oc1c(Cl)cccc1Cl
The “48 h IGC50 (-log10 mol/L)” value of the first is higher: 4.13 for the first, 3.73 for the second.

Going from CC1CCC(=O)O1 (centres undefined) to CCCCC1CCC(=O)O1 (centres undefined), the “48 h IGC50 (-log10 mol/L)” value rises from 1.43 to 2.62.

CCOC(=O)c1ccccn1 and NCCc1ccccn1 are within 0.2 log units of each other in “48 h IGC50 (-log10 mol/L)” value: 2.08 for the first, 2.26 for the second.

Going from CC(C)(C)C(=O)CCl to CCOC(=O)CCl, the “48 h IGC50 (-log10 mol/L)” value falls from 4.27 to 4.06.

First: CCOC(=O)C(C(=O)OCC)=C(C)C
Second: CCOC(=O)C(Cl)C(=O)OCC
The “48 h IGC50 (-log10 mol/L)” value of the first is lower: 2.93 for the first, 3.63 for the second.

Going from CC(C)(C)c1cc(O)cc(C(C)(C)C)c1 to CC(C)(C)c1ccncc1, the “48 h IGC50 (-log10 mol/L)” value falls from 4.64 to 3.2.

Going from O=[N+]([O-])c1cccnc1SCc1ccccc1 to O=[N+]([O-])c1ccccc1Cl, the “48 h IGC50 (-log10 mol/L)” value falls from 4.72 to 3.68.

Compared with CC/C=C/CBr, ClCC=CCCl is higher in “48 h IGC50 (-log10 mol/L)” value: 3.77 for the first, 4.02 for the second.

First: O=C(CBr)Oc1ccc([N+](=O)[O-])cc1
Second: CCc1ccc([N+](=O)[O-])cc1
The “48 h IGC50 (-log10 mol/L)” value of the first is higher: 4.81 for the first, 3.43 for the second.

ClC(Cl)c1ccccc1 and CSc1ccccc1 are within 0.2 log units of each other in “48 h IGC50 (-log10 mol/L)” value: 3.11 for the first, 3.18 for the second.

First: O=C(c1ccccc1)c1ccc(Br)cc1
Second: Nc1ccc(C(=O)c2ccccc2)cc1
The “48 h IGC50 (-log10 mol/L)” value of the first is higher: 4.26 for the first, 3.68 for the second.

Going from CCc1cccc(O)c1 to CCc1cccc(N)c1, the “48 h IGC50 (-log10 mol/L)” value falls from 3.29 to 2.97.

First: CCCCCCCC(C)O (centres undefined)
Second: CCCCCC(O)CC (centres undefined)
The “48 h IGC50 (-log10 mol/L)” value of the first is higher: 3.62 for the first, 2.94 for the second.

First: COc1ccc(C=O)cc1
Second: CCOc1ccc(C(=O)OC)cc1
The “48 h IGC50 (-log10 mol/L)” value of the first is lower: 2.95 for the first, 3.58 for the second.

Compared with C=CCC(=O)O, C=CC(=O)CCC is higher in “48 h IGC50 (-log10 mol/L)” value: 2.36 for the first, 4.66 for the second.

First: c1csc(-c2cccs2)c1
Second: Oc1ccccc1Br
The “48 h IGC50 (-log10 mol/L)” value of the first is higher: 4.04 for the first, 3.33 for the second.

Compared with C#CCSc1ccccc1, O=C(CO)c1ccccc1 is lower in “48 h IGC50 (-log10 mol/L)” value: 3.54 for the first, 3.08 for the second.

Going from CCCCCCCCOC(C)=O to CCCCCCCCCC(=O)O, the “48 h IGC50 (-log10 mol/L)” value falls from 4.06 to 3.51.

Going from O=C(OCCO)c1ccccc1O to O=C(Oc1cccc(O)c1)c1ccccc1, the “48 h IGC50 (-log10 mol/L)” value rises from 2.92 to 4.11.

Compared with N#Cc1ccccc1N, N#Cc1ccccc1Cl is higher in “48 h IGC50 (-log10 mol/L)” value: 2.5 for the first, 3.28 for the second.

O=C1CCCC(=O)C1 and CC1=CCCC1=O are within 0.2 log units of each other in “48 h IGC50 (-log10 mol/L)” value: 2.07 for the first, 2.17 for the second.

Compared with CCOC(=O)CCC(C)=O, CCOC(=O)CCCl is higher in “48 h IGC50 (-log10 mol/L)” value: 1.6 for the first, 2.5 for the second.

Compared with CCCC(=O)CCC, C=C(C)C(=O)OCC(CC)CCCC (centres undefined) is higher in “48 h IGC50 (-log10 mol/L)” value: 2.33 for the first, 4.57 for the second.

Going from CC(=O)C(Cl)C(C)=O to COC(=O)C=C(C)C, the “48 h IGC50 (-log10 mol/L)” value falls from 4.44 to 1.94.

First: CCCCCC#CC=O
Second: CCCCC(N)CO (centres undefined)
The “48 h IGC50 (-log10 mol/L)” value of the first is higher: 4.72 for the first, 2.42 for the second.

First: OCCCCCCCCCl
Second: OCCCCO
The “48 h IGC50 (-log10 mol/L)” value of the first is higher: 3.49 for the first, 0.764 for the second.

Compared with CNCCc1ccccc1, ClCCCc1ccccc1 is higher in “48 h IGC50 (-log10 mol/L)” value: 2.59 for the first, 3.5 for the second.

Going from CC(C)COC=O to COC(N)=O, the “48 h IGC50 (-log10 mol/L)” value falls from 1.69 to 1.02.

Compared with Nc1cc(Cl)c(Cl)cc1[N+](=O)[O-], Cc1cc(Cl)c([N+](=O)[O-])cc1[N+](=O)[O-] is higher in “48 h IGC50 (-log10 mol/L)” value: 4.66 for the first, 5.33 for the second.

Compared with CCc1ccc(-c2ccccc2)cc1, OCc1ccc2ccccc2c1 is lower in “48 h IGC50 (-log10 mol/L)” value: 4.97 for the first, 3.39 for the second.

First: Brc1ccoc1
Second: CC(=O)c1ccc(C)o1
The “48 h IGC50 (-log10 mol/L)” value of the first is higher: 2.52 for the first, 2.17 for the second.

Compared with CC#CCO, CCc1ccc(CO)cc1 is higher in “48 h IGC50 (-log10 mol/L)” value: 2.13 for the first, 3.07 for the second.

Going from O=C(O)c1ccc(O)cc1 to Cc1ccccc1C(=O)c1ccccc1, the “48 h IGC50 (-log10 mol/L)” value rises from 1.98 to 4.37.

C=C(C)C(=O)OCCC and C/C=C(\C)C(=O)OC are within 0.2 log units of each other in “48 h IGC50 (-log10 mol/L)” value: 2.35 for the first, 2.38 for the second.

Going from CCCC(O)Cc1ccccc1 (centres undefined) to N#Cc1cccc(Cl)c1, the “48 h IGC50 (-log10 mol/L)” value falls from 3.16 to 2.94.

Going from Cc1c(O)c(Br)c(Br)c(Br)c1Br to Oc1c(Cl)c(Cl)c(O)c(Cl)c1Cl, the “48 h IGC50 (-log10 mol/L)” value falls from 5.57 to 5.11.

Compared with N#CCc1ccc([N+](=O)[O-])cc1, O=[N+]([O-])c1cc(F)ccc1O is higher in “48 h IGC50 (-log10 mol/L)” value: 3.13 for the first, 4.38 for the second.

Going from O=[N+]([O-])c1c(Cl)ncnc1Cl to CC(=O)O[C@@H]1C[C@@H]2CC[C@@]1(C)C2(C)C, the “48 h IGC50 (-log10 mol/L)” value falls from 5.12 to 3.68.
